# Molecular target: T1, TLR8 (Homo sapiens, UniProt Q9NR97)
# T1 sequence (Q9NR97 27-1041): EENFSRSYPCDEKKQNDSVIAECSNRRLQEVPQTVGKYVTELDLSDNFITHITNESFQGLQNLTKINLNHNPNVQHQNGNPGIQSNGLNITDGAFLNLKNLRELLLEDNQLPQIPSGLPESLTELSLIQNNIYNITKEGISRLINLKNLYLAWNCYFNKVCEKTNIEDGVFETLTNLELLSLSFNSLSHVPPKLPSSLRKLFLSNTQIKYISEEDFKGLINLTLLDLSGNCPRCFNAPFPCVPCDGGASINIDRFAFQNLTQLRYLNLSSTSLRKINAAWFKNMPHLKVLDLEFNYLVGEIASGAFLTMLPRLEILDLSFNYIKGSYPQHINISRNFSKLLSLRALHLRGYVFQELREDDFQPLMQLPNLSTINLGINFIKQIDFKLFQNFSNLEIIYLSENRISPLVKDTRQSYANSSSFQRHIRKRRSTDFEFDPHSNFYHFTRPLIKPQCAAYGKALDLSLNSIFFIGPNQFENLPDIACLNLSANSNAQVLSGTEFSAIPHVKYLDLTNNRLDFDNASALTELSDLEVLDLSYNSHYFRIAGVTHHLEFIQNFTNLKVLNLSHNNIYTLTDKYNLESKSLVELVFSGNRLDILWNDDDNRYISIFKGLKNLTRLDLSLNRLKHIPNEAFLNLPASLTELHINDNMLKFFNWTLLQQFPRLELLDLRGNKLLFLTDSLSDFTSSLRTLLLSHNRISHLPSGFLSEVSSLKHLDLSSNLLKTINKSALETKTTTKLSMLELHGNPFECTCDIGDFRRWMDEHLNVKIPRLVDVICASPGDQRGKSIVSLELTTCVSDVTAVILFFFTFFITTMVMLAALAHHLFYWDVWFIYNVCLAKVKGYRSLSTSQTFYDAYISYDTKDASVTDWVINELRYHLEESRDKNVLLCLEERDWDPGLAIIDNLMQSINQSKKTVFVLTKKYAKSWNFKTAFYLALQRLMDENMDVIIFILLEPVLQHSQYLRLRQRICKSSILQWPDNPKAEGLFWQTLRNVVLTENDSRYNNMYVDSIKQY
# Experiment: huPBMC TLR8 Antagonist IL-6 TR-FRET Assay
# Type: cell-based
# Parameters: Fresh blood was collected from normal human donors; endogenous in cells; host or cells: human PBMCs from fresh donor blood
# Conditions: human PBMCs stimulated with ssRNA40 1 μg/ml (DOTAP), 14-16 hrs; IL-6 TR-FRET read-out
# In short: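 Human PBMCs from fresh donor blood (150,000 cells/well) stimulated 14–16 h at 37 °C with DOTAP-complexed ssRNA40 (final 1 μg/ml for TLR8, 10 μg/mL for TLR7) or ODN2216 (final 0.3 μM, TLR9), 0.25% DMSO, ten-point 1/3 compound dilutions. Supernatant IL-6 read by HTRF (TLR8); IFNα by IFNα2b AlphaLISA (TLR7/TLR9).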
row,Structure (SMILES),IC50 [µM]
1,"Cc1cc(N2CCc3c(c(C)nn3CC34CCC(N)(CC3)CC4)C2)c2ccncc2n1 [Compound No. 3, 4-((3-methyl-5-(2-methyl-1,7-naphthyridin-4-yl)-4,5,6,7-tetrahydro-1H-pyrazolo[4,3-c]pyridin-1-yl)methyl)bicyclo[2.2.2]octan-1-amine]",0.055
2,"Cc1cc(N2CCc3c(c(C)nn3CC34CCC(NC5COC5)(CC3)CC4)C2)c2cnn(C)c2n1 [Compound No. 6, N-(4-((5-(1,6-dimethyl-1H-pyrazolo[3,4-b]pyridin-4-yl)-3-methyl-4,5,6,7-tetrahydro-1H-pyrazolo[4,3-c]pyridin-1-yl)methyl)bicyclo[2.2.2]octan-1-yl)oxetan-3-amine]",0.135
3,"Cc1cc(N2CCc3c(c(C)nn3CC34CCC(NC(=O)[C@@H]5COCCN5)(CC3)CC4)C2)c2cnn(C)c2n1 [Compound No. 8, (S)—N-(4-((5-(1,6-dimethyl-1H-pyrazolo[3,4-b]pyridin-4-yl)-3-methyl-4,5,6,7-tetrahydro-1H-pyrazolo[4,3-c]pyridin-1-yl)methyl)bicyclo[2.2.2]octan-1-yl)morpholine-3-carboxamide]",0.166
4,"Cc1cc(N2CCc3c(c(C)nn3CC34CCC(NC(=O)[C@H]5COCCN5)(CC3)CC4)C2)c2cnn(C)c2n1 [Compound No. 9, (R)—N-(4-((5-(1,6-dimethyl-1H-pyrazolo[3,4-b]pyridin-4-yl)-3-methyl-4,5,6,7-tetrahydro-1H-pyrazolo[4,3-c]pyridin-1-yl)methyl)bicyclo[2.2.2]octan-1-yl)morpholine-3-carboxamide]",0.201
5,"Cc1nc(N2CCc3c(c(C)nn3CC34CCC(N5CC6(COC6)C5)(CC3)CC4)C2)c2c(n1)c(C)nn2C [Compound No. 10, 6-(4-((3-methyl-5-(1,3,5-trimethyl-1H-pyrazolo[4,3-d]pyrimidin-7-yl)-4,5,6,7-tetrahydro-1H-pyrazolo[4,3-c]pyridin-1-yl)methyl)bicyclo[2.2.2]octan-1-yl)-2-oxa-6-azaspiro[3.3]heptane]",0.048
6,"Cc1nc(N2CCc3c(c(C)nn3CC34CCC(N)(CC3)CC4)C2)c2c(n1)c(C)nn2C [Compound No. 26, 4-((3-methyl-5-(1,3,5-trimethyl-1H-pyrazolo[4,3-d]pyrimidin-7-yl)-4,5,6,7-tetrahydro-1H-pyrazolo[4,3-c]pyridin-1-yl)methyl)bicyclo[2.2.2]octan-1-amine]",0.289
7,"Cc1cc(N2CCc3c(c(C)nn3CC34CCC(N(C)C)(CC3)CC4)C2)c2cnn(C)c2n1 [Compound No. 43, 4-((5-(1,6-dimethyl-1H-pyrazolo[3,4-b]pyridin-4-yl)-3-methyl-4,5,6,7-tetrahydro-1H-pyrazolo[4,3-c]pyridin-1-yl)methyl)-N,N-dimethylbicyclo[2.2.2]octan-1-amine]",0.051
8,"Cc1cc(N2CCc3c(c(C)nn3CC34CCC(N5CCN(C)C(=O)C5)(CC3)CC4)C2)c2cnn(C)c2n1 [Compound No. 104, 4-(4-((5-(1,6-dimethyl-1H-pyrazolo[3,4-b]pyridin-4-yl)-3-methyl-4,5,6,7-tetrahydro-1H-pyrazolo[4,3-c]pyridin-1-yl)methyl)bicyclo[2.2.2]octan-1-yl)-1-methylpiperazin-2-one]",0.389
9,"Cc1cc(N2CCc3c(c(C)nn3CC34CCC(N5CCN(C)CC5=O)(CC3)CC4)C2)c2cnn(C)c2n1 [Compound No. 108, 1-(4-((5-(1,6-dimethyl-1H-pyrazolo[3,4-b]pyridin-4-yl)-3-methyl-4,5,6,7-tetrahydro-1H-pyrazolo[4,3-c]pyridin-1-yl)methyl)bicyclo[2.2.2]octan-1-yl)-4-methylpiperazin-2-one]",0.044
10,"Cc1cc(N2CCc3c(c(C)nn3CC34CCC(n5ccnc5)(CC3)CC4)C2)c2cnn(C)c2n1 [Compound No. 119, 1-((4-(1H-imidazol-1-yl)bicyclo[2.2.2]octan-1-yl)methyl)-5-(1,6-dimethyl-1H-pyrazolo[3,4-b]pyridin-4-yl)-3-methyl-4,5,6,7-tetrahydro-1H-pyrazolo[4,3-c]pyridine]",1.18
11,"Cc1cc(N2CCc3c(c(C)nn3CC34CCC(NC(=O)CN5CC(F)C5)(CC3)CC4)C2)c2cnn(C)c2n1 [Compound No. 133, N-(4-((5-(1,6-dimethyl-1H-pyrazolo[3,4-b]pyridin-4-yl)-3-methyl-4,5,6,7-tetrahydro-1H-pyrazolo[4,3-c]pyridin-1-yl)methyl)bicyclo[2.2.2]octan-1-yl)-2-(3-fluoroazetidin-1-yl)acetamide]",0.806
12,"Cc1cc(N2CCc3c(c(C)nn3CC34CCC(NC(=O)CO)(CC3)CC4)C2)c2cnn(C)c2n1 [Compound No. 135, N-(4-((5-(1,6-dimethyl-1H-pyrazolo[3,4-b]pyridin-4-yl)-3-methyl-4,5,6,7-tetrahydro-1H-pyrazolo[4,3-c]pyridin-1-yl)methyl)bicyclo[2.2.2]octan-1-yl)-2-hydroxyacetamide]",8.44
13,"Cc1cc(N2CCc3c(c(C)nn3CC34CCC(NC(=O)CN5CC(O)C5)(CC3)CC4)C2)c2cnn(C)c2n1 [Compound No. 136, N-(4-((5-(1,6-dimethyl-1H-pyrazolo[3,4-b]pyridin-4-yl)-3-methyl-4,5,6,7-tetrahydro-1H-pyrazolo[4,3-c]pyridin-1-yl)methyl)bicyclo[2.2.2]octan-1-yl)-2-(3-hydroxyazetidin-1-yl)acetamide]",0.178
14,"[2H]C([2H])([2H])n1ncc2c(N3CCc4c(c(C)nn4CC45CCC(N)(CC4)CC5)C3)cc(C)nc21 [Compound No. 140, 4-((3-methyl-5-(6-methyl-1-(methyl-d3)-1H-pyrazolo[3,4-b]pyridin-4-yl)-4,5,6,7-tetrahydro-1H-pyrazolo[4,3-c]pyridin-1-yl)methyl)bicyclo[2.2.2]octan-1-amine]",0.331
15,"Cc1cc(N2CCc3c(c(C)nn3CC34CCC(NC(=O)OC(C)(C)C)(CC3)CC4)C2)c2ccncc2n1 [Compound No. 147, tert-butyl (4-((3-methyl-5-(2-methyl-1,7-naphthyridin-4-yl)-4,5,6,7-tetrahydro-1H-pyrazolo[4,3-c]pyridin-1-yl)methyl)bicyclo[2.2.2]octan-1-yl)carbamate]",> 10
16,"Cc1nn(CC23CCC(N)(CC2)CC3)c2c1CN(c1nc(N)nc3c1cnn3C)CC2 [compound 13, 4-(1-((4-aminobicyclo[2.2.2]octan-1-yl)methyl)-3-methyl-6,7-dihydro-1H-pyrazolo[4,3-c]pyridin-5(4H)-yl)-1-methyl-1H-pyrazolo[3,4-d]pyrimidin-6-amine]",1.35
17,"Cc1nn(CC23CCC(N)(CC2)CC3)c2c1CN(c1nc(Cl)nc3cnn(C)c13)CC2 [compound 15, 4-((5-(5-chloro-1-methyl-1H-pyrazolo[4,3-d]pyrimidin-7-yl)-3-mehtyl-4,5,6,7-tetrahydro-1H-pyrazolo[4,3-c]pyridin-1-yl)methyl)bicyclo[2.2.2]octan-1-amine]",0.203
18,"Cc1nc(N2CCc3c(c(C)nn3CC34CCC(N5CCCC5)(CC3)CC4)C2)c2cnn(C)c2n1 [compound 16, 1,6-dimethyl-4-(3-methyl-1-((4-(pyrrolidin-1-yl)bicyclo[2.2.2]octan-1-yl)methyl)-6,7-dihydro-1H-pyrazolo[4,3-c]pyridin-5(4H)-yl)-1H-pyrazolo[3,4-d]pyrimidine]",0.443
19,"Cc1nc(N2CCc3c(c(C)nn3CC34CCC(N5CCCC5)(CC3)CC4)C2)c2c(n1)c(C)nn2C [compound 17, 1,3,5-trimethyl-7-(3-methyl-1-((4-(pyrrolidin-1-yl)bicyclo[2.2.2]octan-1-yl)methyl)-6,7-dihydro-1H-pyrazolo[4,3-c]pyridin-5(4H)-yl)-1H-pyrazolo[4,3-d]pyrimidine]",0.199
20,"COCCNC12CCC(Cn3nc(C)c4c3CCN(c3nc(C)nc5c(C)nn(C)c35)C4)(CC1)CC2 [compound 18, N-(2-methoxyethyl)-4-((3-methyl-5-(1,3,5-trimethyl-1H-pyrazolo[4,3-d]pyrimidin-7-yl)-4,5,6,7-tetrahydro-1H-pyrazolo[4,3-c]pyridin-1-yl)methyl)bicyclo[2.2.2]octan-1-amine]",0.077
21,"Cc1nc(N2CCc3c(c(C)nn3CC34CCC(N5CCOCC5)(CC3)CC4)C2)c2cnn(C)c2n1 [compound 19, 4-(4-((5-(1,6-dimethyl-1H-pyrazolo[3,4-d]pyrimidin-4-yl)-3-methyl-4,5,6,7-tetrahydro-1H-pyrazolo[4,3-c]pyridin-1-yl)methyl)bicyclo[2.2.2]octan-1-yl)morpholine]",0.186
